The text below walks through data of patent US5880156A, “Substituted benzoylguanidines, process for their preparation, their use as a medicament or diagnostic and medicament containing them” (priority 1993, dated 1999).

The target in data set [1] is T1, Na^+ /H^+ exchanger from rabbit erythrocytes (Oryctolagus cuniculus, UniProt P23791).
T1 construct: determine the Na^+ influx into the erythrocytes via Na^+ /H^+ exchange by flame photometry; endogenous in cells; host or cells: intact erythrocytes (whole blood samples) of cholesterol-fed White New Zealand rabbits
T1 sequence (P23791 whole entry): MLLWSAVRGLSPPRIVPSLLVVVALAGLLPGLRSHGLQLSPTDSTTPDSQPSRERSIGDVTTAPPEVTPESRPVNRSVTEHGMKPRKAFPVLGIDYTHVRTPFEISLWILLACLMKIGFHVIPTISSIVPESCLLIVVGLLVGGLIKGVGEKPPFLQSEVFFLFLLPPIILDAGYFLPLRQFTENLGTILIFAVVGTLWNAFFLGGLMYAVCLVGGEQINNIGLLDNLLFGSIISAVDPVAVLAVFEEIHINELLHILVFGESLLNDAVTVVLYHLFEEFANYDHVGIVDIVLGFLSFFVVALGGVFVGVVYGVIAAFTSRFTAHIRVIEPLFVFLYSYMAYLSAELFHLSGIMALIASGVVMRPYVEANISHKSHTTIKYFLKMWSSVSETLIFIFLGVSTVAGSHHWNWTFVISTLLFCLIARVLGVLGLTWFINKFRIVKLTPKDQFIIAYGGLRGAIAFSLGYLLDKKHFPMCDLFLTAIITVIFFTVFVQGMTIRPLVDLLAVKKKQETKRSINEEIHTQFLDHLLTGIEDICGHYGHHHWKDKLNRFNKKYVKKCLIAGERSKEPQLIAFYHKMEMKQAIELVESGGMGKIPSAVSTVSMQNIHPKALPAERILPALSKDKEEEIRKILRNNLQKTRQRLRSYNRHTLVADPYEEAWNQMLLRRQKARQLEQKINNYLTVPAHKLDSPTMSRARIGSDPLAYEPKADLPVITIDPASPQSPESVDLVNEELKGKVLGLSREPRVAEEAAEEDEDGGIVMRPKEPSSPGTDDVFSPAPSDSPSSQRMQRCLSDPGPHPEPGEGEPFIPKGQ
The experiment in a line: Inhibition of the Na^+ /H^+ exchanger from rabbit erythrocytes (Na^+ influx by flame photometry). Particulars: pH 7.4, 37° C., cholesterol-fed rabbits. It is filed as cell-based, rabbit (White New Zealand). As for the experimental part: White New Zealand rabbits (Ivanovas) received a standard diet containing 2% cholesterol for six weeks in order to activate Na^+ /H^+ exchange and thus to be able to determine the Na^+ influx into the erythrocytes via Na^+ /H^+ exchange by flame photometry. The blood was taken from the auricular arteries and rendered uncoagulable by means of 25 IU of potassium heparin. A part of each sample was used for the duplicate determination of the hematocrit by centrifugation. Aliquots of 100 μl in each case were used to measure the Na^+ starting content of the erythrocytes.
In order to determine the amiloride-sensitive sodium influx, 100 μl of each blood sample were incubated at pH 7.4 and 37° C. in 5 ml in each case of a hyperosmolar salt-sucrose medium (mmol/l: 140 NaCl, 3 KCl, 150 sucrose, 0.1 ouabain, 20 trishydroxymethylaminomethane). The erythrocytes were then washed three times with ice-cold MgCl2 --ouabain solution (mmol/l: […] MgCl2, 0.1 ouabain) and hemolyzed in 2.0 ml of distilled water. The intracellular sodium content was determined by flame photometry.
The net Na^+ influx was calculated from the difference between sodium starting values and the sodium content of the erythrocytes after incubation. The amilorideinhibitable sodium influx ensued from the difference in the sodium content of the erythrocytes after incubation with and without amiloride 3×10^-4 mol/l. The sodium influx was also determined in this manner in the case of the compounds according to the invention.

The subject of data set [2] is cardiac arrhythmias. Particulars: in vivo; cited from earlier work.

Where a name gives a salt, the structure may show the parent alone.

As a reminder, the IC50 is the concentration that inhibits the measured activity by half. The molecule `C[C@H](O)[C@@H](O)c1ccc(Oc2ccc(C(=O)N=C(N)N)cc2S(C)(=O)=O)cc1` [Example 4, 4-[4-(1(S),2(S)-Dihydroxyprop-1-yl)phenoxy]-3-methylsulfonylbenzoylguanidin] yielded a 50% inhibitory concentration (IC50) in data set [1] of 100 to 500 nM. The same measure, in the same setting: the same measure for `CC(=O)c1ccc(Oc2ccc(C(=O)N=C(N)N)cc2S(C)(=O)=O)cc1` [Example 1, 4-(4-Acetylphenoxy)-3-methylsulfonylbenzoylguanidine]: 400 nM; for `C[C@@H](O)[C@H](O)c1ccc(Oc2ccc(C(=O)N=C(N)N)cc2S(C)(=O)=O)cc1` [Example 3, 4-[4-(1(R),2(R) -Dihydroxyprop-1-yl)phenoxy]-3-methylsulfonylbenzoylguanidine]: 300 to 500 nM; for `CC(O)c1ccc(Oc2ccc(C(=O)N=C(N)N)cc2S(C)(=O)=O)cc1` (racemic) [Example 2, hydrochloride]: 400 nM. In the case of `N=C(N)NC(=O)c1nc(Cl)c(N)nc1N` [amiloride, Amiloride], the “side effects accompanying antiarrhythmic effect” value in data set [2] was “hypotensive and saluretic action”.
